From US7915245B2, “Methods and compositions of trail-death receptor agonists/activators” (The Board of Regents of the University of Texas System, priority 2007, dated 2011)

How the values were obtained:
Type in all cases: in vivo, Balb c nude mice
[1] = test system: pancreatic cancer AsPC-1 cells xenografted; assay: AsPC-1 xenograft tumor growth; conditions: 20, 40 mg/kg iv, 5 days per week
Method: (§1) FIG. 27. […] AsPC-1 cells (2×10^6 cells as a 50% suspension in Matrigel, Becton Dickinson, Bedford, Mass., in a final volume of 0.1 ml) were injected subcutaneously in the right flank of Balb c nude mice. After tumor formation (about 100 mm^3), nude mice (10 per group) were treated (iv) with vehicle control (0.1 ml normal saline), DRA11 (20 mg/kg, 0.1 ml volume), and DRA11 (40 mg/kg, 0.1 ml volume) everyday 5 days per week throughout the duration of the experiment. Tumor volume was calculated using the equation: (volume=length×width×depth×0.5236 mm^3).
FIG. 31. […] MDA-MB-468 cells (2×10^6 cells, in a final volume of 0.1 ml PBS) were injected subcutaneously in the right flank of Balb c nude mice. […] Tumor volume was calculated using the equation: (volume=length×width×depth×0.5236 mm^3). […]
AsPC-1 cells (2×10^6 cells as a 50% suspension in Matrigel, Becton Dickinson, Bedford, Mass., in a final volume of 0.1 ml) were injected subcutaneously in the right flank of Balb c nude mice. […] Tumor volume was calculated using the equation: (volume=length×width×depth×0.5236 mm^3). […]
MDA-MB-468 cells (2×10^6 cells, in a final volume of 0.1 ml PBS) were injected subcutaneously in the right flank of Balb c nude mice. […] Tumor volume was calculated using the equation: (volume=length×width×depth×0.5236 mm^3). […]

[2] = test system: prostate cancer PC-3 cells xenografted; assay: PC-3 xenograft tumor growth; conditions: 40 mg/kg iv, 5 days per week
Method: as §1, with “26.” for “27.”, “PC-3” for “AsPC-1”, “cells,” for “cells as a 50% suspension in Matrigel, Becton Dickinson, Bedford, Mass.,”, “mice” for “mice (10 per group)”, “(20 mg/kg, 0.1 ml volume), DRA11 (30” for “(20”, “mm^3). Data represent mean±S.E.” for “mm^3).”
FIG. 29. […] PC-3 cells (1×10^6 cells, in a final volume of 0.1 ml PBS) were injected subcutaneously in the right flank of Balb c nude mice. After tumor formation (about 100 mm^3), nude mice were treated (iv) with vehicle control (0.1 ml normal saline), and DRA9S (40 mg/kg, 0.1 ml volume) everyday 5 days per week throughout the duration of the experiment. Tumor volume was calculated using the equation: (volume=length×width×depth×0.5236 mm^3). […]
PC-3 cells (2×10^6 cells, in a final volume of 0.1 ml) were injected subcutaneously in the right flank of Balb c nude mice. […] Tumor volume was calculated using the equation: (volume=length×width×depth×0.5236 mm^3). […]
PC-3 cells (1×10^6 cells, in a final volume of 0.1 ml PBS) were injected subcutaneously in the right flank of Balb c nude mice. […] Tumor volume was calculated using the equation: (volume=length×width×depth×0.5236 mm^3). […]

[3] = test system: prostate cancer LNCaP cells xenografted; assay: LNCaP xenograft tumor growth; conditions: 40 mg/kg iv, 5 days per week
Method: as §1, with “28.” for “27.”, “LNCaP” for “AsPC-1”, “mice” for “mice (10 per group)”, “saline),” for “saline), DRA11 (20 mg/kg, 0.1 ml volume),”, “DRA9S” for “DRA11”, “mm^3). Data represent mean±S.E.” for “mm^3).”
LNCaP cells (2×10^6 cells as a 50% suspension in Matrigel, Becton Dickinson, Bedford, Mass., in a final volume of 0.1 ml) were injected subcutaneously in the right flank of Balb c nude mice. After tumor formation (about 100 mm^3), nude mice were treated (iv) with vehicle control (0.1 ml normal saline), and DRA9S (40 mg/kg, 0.1 ml volume) everyday 5 days per week throughout the duration of the experiment. Tumor volume was calculated using the equation: (volume=length×width×depth×0.5236 mm^3). See, for example, FIG. 28. Data represent mean ±S.E.

CCOc1cc(Br)c(Br)c(/C=N/c2cccc(C(=O)O)c2C)c1O [DRA9S]
inhibits growth: growth of xenografted AsPC-1 tumors (tumor volume) [1] | growth of xenografted PC-3 tumors (tumor volume) [2] | growth of xenografted LNCaP tumors (tumor volume) [3]
